From paper PMC3871574, “Genes Involved in Degradation of para-Nitrophenol Are Differentially Arranged in Form of Non-Contiguous Gene Clusters in Burkholderia sp. strain SJ98” (PLoS ONE, 2013)
Where two headings read alike, the source gives them in different places.

Tested on: PnpA (His-6-PnpA; p-nitrophenol 4-monooxygenase, PnpM)
Test: spectrophotometric monooxygenase assay, Michaelis-Menten
Type: biochemical, Burkholderia sp. SJ98
Source text: spectrophotometric monooxygenase assay, Michaelis-Menten on PnpA (His-6-PnpA; p-nitrophenol 4-monooxygenase, PnpM)

Structure (SMILES) | Km [µM] | Km (fixed NADH, 0.02 mM FAD, 50 mM phosphate pH 7.4, PNP 12.5-250 µM) [µM]
NC(=O)C1=CN([C@@H]2O[C@H](COP(=O)(O)OP(=O)(O)OC[C@H]3O[C@@H](n4cnc5c(N)ncnc54)[C@H](O)[C@@H]3O)[C@@H](O)[C@H]2O)C=CC1 [NADH] | 96 ± 7.74 | –
O=[N+]([O-])c1ccc(O)cc1 [PNP, p-nitrophenol] | – | 35.4 ± 5.95
